# From US11344510B2, “Arylcyclohexylamine derivatives and their use in the treatment of psychiatric disorders” (Gilgamesh Pharmaceuticals, Inc., priority 2019, dated 2022)
# “Also recorded” adds a separate entry of the source. Like-named read-outs stand apart in the source and are kept apart here.
# What was measured:
# MK-801 site of NMDAR = MK-801 site of NMDAR (Rattus norvegicus, UniProt P35439); conditions: read-out: NMDAR Ki ± SEM, from Ebert et al. 1997; cited from earlier work
# [1] = HLM stability (High Activity); type: in vitro ADME; conditions: both sexes, human, liver microsomes, pH 7.4, Condition 2 (High Activity), 1.0 mg protein/mL
# How it was run: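 Pooled male and female human liver microsomes, 1.0 mg protein/mL, in 100 mM PBS pH 7.4 with NADPH-regenerating system; compound 1 μM at 37° C, five time points over 60 min. Parent remaining by LC-MS/MS; kel, t1/2 and Clint from linear regression of ln(AUC) versus time.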
# mice (forced swim test) = experiment: Forced swim test in mice, 30-minute pre-treatment; type: in vivo, Swiss Webster mice; conditions: s.c., 30 minutes before test, relative to vehicle
# Protocol: Animals. Male Swiss Webster mice, aged 4-5 weeks (body weight 25-30 g, Envigo) were used in the experiments Animals were housed in groups of 4-5 under controlled temperatures and 12-hour light/dark cycles, with ad libitum food (Teklad 7001 rodent diet) and water. These studies were carried out in strict accordance with the recommendations in the Guide for the Care and Use of Laboratory Animals of the National Institutes of Health. All efforts were made to minimize suffering.
# Drugs and Drug Administration. Imipramine hydrochloride was administered intraperitoneally (i.p.) at a dose of 30 mg/kg. Other compounds were tested as the racemates (indicated by “rac” nomenclature) and were administered subcutaneously (s.c.) as the hydrochloride salts. Normal saline was used as the vehicle and all compounds were administered at a volume of 10 mL/kg, 30 minutes before behavioral testing.
# Forced Swim Test (FST). Group size was n=10 per treatment Animals were acclimated to the testing room 30 minutes prior to behavioral testing. Mice were placed individually in a cylinder of water measuring 5 inches wide by 10 inches tall and maintained at 24-25° C. The activity of each mouse was recorded for 6 minutes using Noldus Ethovision tracking software, with periods of inactivity being automatically quantified.
# Statistical Analysis. The data points shown are the mean±standard error of the mean (SEM). Analysis was performed using GraphPad Prism 6. Indicated statistical comparisons represent the results of unpaired, two-tailed t tests relative to vehicle (not corrected for multiple comparisons).
# [2] = HLM stability (Low Activity); type: in vitro ADME; conditions: both sexes, human, liver microsomes, pH 7.4, Condition 1 (Low Activity), 0.42 mg protein/mL
# Protocol: For some of the compounds, stability was tested under two microsomal incubation conditions, one with normal enzymatic activity (low activity) and one with higher enzymatic loading, longer incubation time, and lower compound concentration (high activity) intended to increase metabolic lability.
# HLM Stability (Low Activity). Pooled HLM from adult male and female donors (XenoTech H0630) were used. Microsomal incubations were carried out in 96-well plates in 5 aliquots of 40 μL, each (one for each time point). Liver microsomal incubation medium consisted of PBS (100 mM, pH 7.4), MgCl2 (3.3 mM), NADPH (3 mM), glucose-6-phosphate (5.3 mM), and glucose-6-phosphate dehydrogenase (0.67 units/mL), with 0.42 mg of liver microsomal protein per mL. Control incubations were performed by replacing the NADPH-cofactor system with PBS. Test compounds (2 μM, final solvent concentration 1.6%) were incubated with microsomes at 37° C., shaking at 100 rpm. Incubations were performed in duplicate. Five time points over 40 minutes were analyzed. The reactions were stopped by adding 12 volumes of 90% acetonitrile-water to incubation aliquots, followed by protein sedimentation by centrifugation at 5500 rpm for 3 minutes. Supernatants were analyzed for parent compound remaining using a fit-for-purpose liquid chromatography-tandem mass spectrometry (LC-MS/MS) method, with authentic samples of each analyte used for identity confirmation.
# Data Analysis. The elimination constant (kel), half-life (t1/2) and intrinsic clearance (Clint) were determined in a plot of […] versus time, using linear regression analysis.
# [3] = Oral bioavailability in mice, Method A; type: in vivo; conditions: CD-1 mice; for F: 10 mg/kg; for half-life / Cmax / AUC(0-inf): male, mouse
# Protocol: Animals. Male CD-1 mice were used in these studies Animals were randomly assigned to treatment groups and were fasted for 4 h before dosing.
# Drugs. Test compounds were dissolved in normal saline (ketamine) or de-ionized water (other compounds) and administered intravenously (iv) or orally (po) at a dose of 10 mg/kg (calculated based on freebase) and at a volume of 5 mL/kg body weight. Compounds were tested as the racemates (indicated by “rac” nomenclature) or pure enantiomers (indicated by “R” or “S” nomenclature).
# Sample Collection and Bioanalysis. Blood samples were collected under 2,2,2-tribromoethanol anesthesia (150 mg/kg, ip) from the orbital sinus at 0.083, 0.25, 0.5, 1, 2, 4, 8 and 24 h (4 animals per time point) into microcontainers containing K2EDTA Immediately after collection of blood, mice were euthanized by cervical dislocation and brain samples were collected at the same time points. All samples were immediately processed, flash-frozen, and stored at −70° C. until subsequent analysis. Plasma samples were separated by centrifugation of whole blood and aliquots (50 μL) were mixed with 200 μL of internal standard solution (400 ng/mL in 1:1 v/v CH3CN:MeOH). After mixing by pipetting and centrifuging for 4 min at 6000 rpm, 0.5 μL of each supernatant was analyzed for drug using a fit-for-purpose liquid chromatography-tandem mass spectrometry (LC-MS/MS) method, with authentic samples of each analyte used for calibration and identification. Brain samples (weight 100 mg±1 mg) were dispersed in 500 μL, of internal standard solution (400 ng/mL in 4:1 v/v MeOH:water) using zirconium oxide beads (115 mg±5 mg) in The Bullet Blender® homogenizer for 30 s at speed 8. After homogenization, the samples were centrifuged for 4 min at 14,000 rpm and 0.5 μL of each supernatant was analyzed for drug using a fit-for-purpose LC-MS/MS method, with authentic samples of each analyte used for calibration and identification.
# Data Analysis. The drug concentrations of samples below the lower limit of quantitation (LLOQ) were designated as zero. Pharmacokinetic data analysis was performed using noncompartmental, bolus injection or extravascular input analysis models in WinNonlin 5.2 (PharSight). Data points below LLOQ were presented as missing to improve validity of t112 calculations.
# [4] = target: MK-801 binding site of the N-methyl-D-aspartate receptor (NMDAR); experiment: NMDAR radioligand binding with [3H]MK-801, Method A; set-up: species or system Wistar rat; conditions: MK-801 site, Method A, Wistar rat brain (minus cerebellum), 5.0 nM [3H]MK-801; read-out: NMDAR Ki ± SEM
# Protocol: Radioligand Binding—Method A. Affinity of the test compounds for NMDAR was determined in radioligand binding experiments with [^3H]MK-801 by Eurofins Panlabs, Inc., using methods adapted from the literature (Javitt et al. 1987; Reynolds et al. 1989) and under the conditions described in Table 12.
# CSDS-susceptible mice = experiment: Behavioral tests after chronic social defeat stress (CSDS); type: in vivo, C57BL/6 mice; conditions: 10 mg/kg i.p., single dose
# [5] = calculated based on brain exposure
# [6] = brain, 10 mg/kg iv, read-out: t1/2 (iv)
# [7] = brain, 10 mg/kg po, read-out: t1/2 (po)
# [8] = plasma, 10 mg/kg iv, read-out: AUC0-inf (iv) (converted)
# [9] = plasma, 10 mg/kg iv, read-out: t1/2 (iv)
# [10] = plasma, 10 mg/kg po, read-out: AUC0-inf (po) (converted)
# [11] = plasma, 10 mg/kg po, read-out: t1/2 (po)
# [12] = plasma, absolute oral bioavailability
SMILES,Ki (MK-801 site of NMDAR),half-life at 1 μM [1],microsomal CLint at 1 μM [1],immobility time in FST (mice (forced swim test)),half-life at 2 μM [2],microsomal CLint at 2 μM [2],"AUC0-inf (iv) ([3]; brain, 10 mg/kg iv)","AUC0-inf (po) ([3]; brain, 10 mg/kg po)","F [3, 5]","half-life [3, 6]","Cmax ([3]; brain, 10 mg/kg po)","half-life [3, 7]","AUC(0-inf) [3, 8]","half-life [3, 9]","Cmax ([3]; plasma, 10 mg/kg po)","AUC(0-inf) [3, 10]","half-life [3, 11]","F [3, 12]",Ki [4],"antidepressant-like activity in behavioral tests after CSDS (TST, FST, SPT) (CSDS-susceptible mice)"
"CN[C@@]1(c2ccccc2Cl)CCCCC1=O (single isomer, unassigned) [(R)-ketamine, ketamine]",1.4 ± 0.1 µM,–,–,–,–,–,–,–,–,–,–,–,–,–,–,–,–,–,–,–
CNC1(c2ccccc2OC)CCCCC1=O (racemic) [Compound 4rac],–,819 min,1 µL/min/mg,did not have effects,43.2 h,1 µL/min/mg,"292,000 ng*min/g","135,000 ng*min/g",46%,19.9 min,1900 ng/g,45.9 min,1650 ng·h/mL,20.6 min,958 ng/mL,850 ng·h/mL,42.6 min,51%,35 µM,–
"CN[C@]1(c2ccccc2Cl)CCCCC1=O (single isomer, unassigned) [(S)-ketamine, ketamine]",0.3 ± 0.013 µM,–,–,–,–,–,–,–,–,–,–,–,–,–,–,–,–,–,–,–
CCNC1(c2cccc(OC)c2)CCCCC1=O (racemic) [Compound 2rac],–,199 min,3 µL/min/mg,reduced time immobile; also recorded: induced antidepressant-like effects,4.85 h,6 µL/min/mg,"279,000 ng*min/g","11,800 ng*min/g",4%,16.1 min,420 ng/g,16.6 min,1100 ng·h/mL,17.9 min,135 ng/mL,62.8 ng·h/mL,14 min,6%,–,–
"CNC1(c2ccccc2F)CCCCC1=O (racemic) [Compound 35rac, 2-(2-Fluorophenyl)-2-(methylamino)cyclohexan-1-one]",–,148 min,5 µL/min/mg,did not have effects,2.85 h,10 µL/min/mg,"186,000 ng*min/g","34,200 ng*min/g",18%,16.1 min,1840 ng/g,19.1 min,1300 ng·h/mL,15.1 min,618 ng/mL,363 ng·h/mL,19.7 min,28%,1.82 µM,superior to 37rac; also recorded: reversed the pro-depressive effects
